The record followed here is EP1057825A1, “ISOFLAVANE DERIVATIVES AND IMMUNOPOTENTIATING COMPOSITIONS CONTAINING THE SAME” (SHIONOGI & CO., LTD., priority 1998, dated 1999).

In the assay the test system is mouse bone marrow cells. The assay is described as follows: Metabolism promoting action on mouse bone marrow cells (mitochondrial metabolism activity, MTT reduction method). Type of assay: cell-based, BALB/c mouse. The conditions noted are these: Mus musculus, Bone marrow cell, 120 h, 5 days, magnitude of metabolism, no test compound = one; for activity at 0.39 µg/mL: Test compound concentration 0.39 µg/ml; for activity at 0.78 µg/mL: Test compound concentration 0.78 µg/ml; for activity at 1.56 µg/mL: Test compound concentration 1.56 µg/ml; for activity at 3.13 µg/mL: Test compound concentration 3.13 µg/ml; for activity at 6.25 µg/mL: Test compound concentration 6.25 µg/ml; for activity at 12.5 µg/mL: Test compound concentration 12.5 µg/ml. The source says:
The presence of an immunoactivating action can be determined if the magnitude of metabolism exceeds one, where the cellular metabolism of cells not having test compounds added thereto is defined as one.

As for `COc1cc(OC)c2c(c1)OCC(c1ccc(O)cc1OCC=C(C)C)C2` (stereo not drawn) [B-5], the activity at 0.39 µg/mL was 100%, the activity at 0.78 µg/mL came out at 115%, the activity at 1.56 µg/mL amounted to 165% and the activity at 3.13 µg/mL amounted to 245%. The activity at 6.25 µg/mL was determined as 205% and the activity at 12.5 µg/mL was determined as 31%.
As for `COc1cc2c(c(OC)c1CC=C(C)C)CC(c1ccc(OCc3ccccc3)cc1OCc1ccccc1)CO2` (stereo not drawn) [B-13], the activity at 1.56 µg/mL turned out to be 121%, the activity at 3.13 µg/mL turned out to be 145%, the activity at 6.25 µg/mL came out at 152% and the activity at 12.5 µg/mL was 162%.
For `COc1cc(OC)c2c(c1)OCC(c1ccc(O)c(CC=C(C)C)c1O)C2` (stereo not drawn) [B-4], the activity at 0.39 µg/mL was determined as 110%, the activity at 0.78 µg/mL was found to be 115%, the activity at 1.56 µg/mL worked out at 125% and the activity at 3.13 µg/mL is 176%. Besides, the activity at 6.25 µg/mL turned out to be 258% and the activity at 12.5 µg/mL was found to be 44%.
Consider `COc1ccc(C2COc3cc(OC)cc(OC)c3C2)c(OC)c1` (stereo not drawn) [B-8], for which the activity at 0.39 µg/mL was 94%, the activity at 0.78 µg/mL is 91%, the activity at 1.56 µg/mL is 90% and the activity at 3.13 µg/mL came to 90%. Moreover, the activity at 6.25 µg/mL was found to be 118% and the activity at 12.5 µg/mL is 83%.
On to `COc1cc(OC)c2c(c1)OCC(c1ccc(O[Si](C)(C)C(C)(C)C)cc1O[Si](C)(C)C(C)(C)C)C2` (stereo not drawn) [B-6], for which the activity at 0.39 µg/mL turned out to be 100%, the activity at 0.78 µg/mL came to 103%, the activity at 1.56 µg/mL amounted to 120% and the activity at 3.13 µg/mL amounted to 144%. In addition, the activity at 6.25 µg/mL came out at 173% and the activity at 12.5 µg/mL was found to be 156%.
For the compound `COc1c2c(cc(OC(C)C)c1CCC(C)C)OCC(c1ccc(O)c(CCC(C)C)c1OC(C)C)C2` (stereo not drawn) [A-21], the activity at 1.56 µg/mL was found to be 131%, the activity at 3.13 µg/mL turned out to be 122%, the activity at 6.25 µg/mL was found to be 89% and the activity at 12.5 µg/mL came to 44%.
On to `CCCCCCOc1cc2c(c(OC)c1CCC(C)C)CC(c1ccc(O)c(CCC(C)C)c1OCCCCCC)CO2` (stereo not drawn) [A-14], for which the activity at 0.39 µg/mL was 134%, the activity at 0.78 µg/mL was determined as 149%, the activity at 1.56 µg/mL was determined as 166% and the activity at 3.13 µg/mL is 184%. The activity at 6.25 µg/mL was determined as 199% and the activity at 12.5 µg/mL was 209%.
As to `COc1cc(O)c2c(c1)OCC(c1ccc(OCc3ccccc3)cc1OCc1ccccc1)C2` (stereo not drawn) [B-7], the activity at 0.39 µg/mL came to 99%, the activity at 0.78 µg/mL is 100%, the activity at 1.56 µg/mL came to 125% and the activity at 3.13 µg/mL turned out to be 141%. Besides, the activity at 6.25 µg/mL worked out at 132% and the activity at 12.5 µg/mL turned out to be 67%.
In the case of `COc1cc(OC)c2c(c1)OCC(c1ccc(O)cc1O)C2` (stereo not drawn) [B-2], the activity at 0.39 µg/mL worked out at 106%, the activity at 0.78 µg/mL came to 116%, the activity at 1.56 µg/mL was 110% and the activity at 3.13 µg/mL was found to be 146%. Besides, the activity at 6.25 µg/mL is 293% and the activity at 12.5 µg/mL was determined as 100%.
In the case of `COc1cc2c(c(OC)c1CC=C(C)C)CC(c1ccc(O[Si](C)(C)C(C)(C)C)cc1O[Si](C)(C)C(C)(C)C)CO2` (stereo not drawn) [B-12], the activity at 1.56 µg/mL amounted to 122%, the activity at 3.13 µg/mL is 122%, the activity at 6.25 µg/mL was 129% and the activity at 12.5 µg/mL was determined as 136%.
For the compound `COc1c2c(cc(OC(C)C)c1CCC(C)C)OCC(c1ccc(O)c(CCC(C)C)c1O)C2` (stereo not drawn) [A-19], the activity at 1.56 µg/mL worked out at 120%, the activity at 3.13 µg/mL amounted to 128%, the activity at 6.25 µg/mL came out at 126% and the activity at 12.5 µg/mL was found to be 53%.
Consider `COc1cc2c(c(OC)c1CCC(C)C)CC(c1ccc(O)cc1O)CO2` (stereo not drawn) [B-11], for which the activity at 0.39 µg/mL came out at 102%, the activity at 0.78 µg/mL was 129%, the activity at 1.56 µg/mL was determined as 125% and the activity at 3.13 µg/mL is 139%. Besides, the activity at 6.25 µg/mL turned out to be 88% and the activity at 12.5 µg/mL was 32%.
In the case of `COc1cc2c(c(OC)c1CC=C(C)C)CC(c1ccc(O)cc1O)CO2` (stereo not drawn) [B-9], the activity at 0.39 µg/mL was determined as 110%, the activity at 0.78 µg/mL was 133%, the activity at 1.56 µg/mL turned out to be 150% and the activity at 3.13 µg/mL was found to be 165%. Also, the activity at 6.25 µg/mL stood at 110% and the activity at 12.5 µg/mL came to 25%.
In the case of `CCCCCCCCCOc1cc2c(c(OC)c1CCC(C)C)CC(c1ccc(O)c(CCC(C)C)c1OCCCCCCCCC)CO2` (stereo not drawn) [A-18], the activity at 0.39 µg/mL came to 103%, the activity at 0.78 µg/mL was determined as 102%, the activity at 1.56 µg/mL worked out at 109% and the activity at 3.13 µg/mL stood at 115%. The activity at 6.25 µg/mL was determined as 119% and the activity at 12.5 µg/mL stood at 114%.
As for `COc1c(CCC(C)C)c(O)cc2c1CC(c1ccc(O)c(CCC(C)C)c1OC(C)C)CO2` (stereo not drawn) [A-22], the activity at 1.56 µg/mL was 186%, the activity at 3.13 µg/mL worked out at 176%, the activity at 6.25 µg/mL turned out to be 40% and the activity at 12.5 µg/mL worked out at 50%.
Taken in the same sequence, the figures for `COc1c(CCC(C)C)c(O)cc2c1CC(c1ccc(OC(C)C)c(CCC(C)C)c1OC(C)C)CO2` (stereo not drawn) [A-20] were 135%, 134%, 116% and 94%.
As to `COc1cc(OC)c2c(c1)OCC(c1ccc(OCc3ccccc3)cc1OCc1ccccc1)C2` (stereo not drawn) [B-1], the activity at 0.39 µg/mL worked out at 114%, the activity at 0.78 µg/mL was 116%, the activity at 1.56 µg/mL is 136% and the activity at 3.13 µg/mL was determined as 157%. Further, the activity at 6.25 µg/mL was found to be 188% and the activity at 12.5 µg/mL came out at 178%.
For the compound `COc1cc(OC)c2c(c1)OCC(c1ccc(OCC=C(C)C)cc1OCC=C(C)C)C2` (stereo not drawn) [B-3], the activity at 0.39 µg/mL amounted to 114%, the activity at 0.78 µg/mL came out at 111%, the activity at 1.56 µg/mL was found to be 110% and the activity at 3.13 µg/mL was found to be 162%. The activity at 6.25 µg/mL stood at 183% and the activity at 12.5 µg/mL came out at 204%.
Consider `COc1cc2c(c(OC)c1C=CC(C)C)CC(c1ccc(O)cc1O)CO2` (stereo not drawn) [B-10], for which the activity at 0.39 µg/mL was found to be 118%, the activity at 0.78 µg/mL was 145%, the activity at 1.56 µg/mL came out at 204% and the activity at 3.13 µg/mL was found to be 119%. In addition, the activity at 6.25 µg/mL stood at 45% and the activity at 12.5 µg/mL is 23%.
For the compound `CCCCCCCCCOc1ccc(C2COc3cc(O)c(CCC(C)C)c(OC)c3C2)c(OCCCCCCCCC)c1CCC(C)C` (stereo not drawn) [A-17], the activity at 0.39 µg/mL stood at 116%, the activity at 0.78 µg/mL was 117%, the activity at 1.56 µg/mL came to 126% and the activity at 3.13 µg/mL was 164%. Moreover, the activity at 6.25 µg/mL worked out at 177% and the activity at 12.5 µg/mL is 156%.
